Values of other authors in patent US10596205B2, “Topical medicament for skin and mucosal injuries” (REV PHARMA Corp., priority 2018, dated 2020).

How the values were obtained:
biofilm = settings: animals, diet rich in the fatty acids
[1] = tested on: Gram-positive microorganisms; settings: in vitro study
S. Mutans biofilm = settings: for Biofilm biomass / Acidogenicity of the biofilm (pH drops): 10% sucrose then free fatty acid; for Acidogenicity of the biofilm (pH drops): compared with biofilms exposed to only 10% sucrose; for Enamel demineralization induced by sucrose: biofilms treated with the fatty acids

## CCCCCCCCCCCC(=O)O [Lauric acid]
biofilm
  Quantity of bacteria in biofilm: lower quantity of bacteria
[1]
  Bacteriostatic effect: highly bacteriostatic

## CCCCC/C=C\C/C=C\CCCCCCCC(=O)O [linoleic, linoleic acid]
biofilm
  Quantity of bacteria in biofilm: lower quantity of bacteria
S. Mutans biofilm
  Biofilm biomass: decline in biomass
  Acidogenicity of the biofilm (pH drops): lower pH drops
  Enamel demineralization induced by sucrose: significantly lower reduction

## CCCCCCCC/C=C\CCCCCCCC(=O)O [oleic, oleic acid]
S. Mutans biofilm
  Biofilm biomass: decline in biomass
  Acidogenicity of the biofilm (pH drops): lower pH drops
  Enamel demineralization induced by sucrose: significantly lower reduction
